# Molecular target: T1, hormone sensitive lipase (HSL) (Homo sapiens, UniProt Q05469)
# T1 sequence (Q05469 1-1076): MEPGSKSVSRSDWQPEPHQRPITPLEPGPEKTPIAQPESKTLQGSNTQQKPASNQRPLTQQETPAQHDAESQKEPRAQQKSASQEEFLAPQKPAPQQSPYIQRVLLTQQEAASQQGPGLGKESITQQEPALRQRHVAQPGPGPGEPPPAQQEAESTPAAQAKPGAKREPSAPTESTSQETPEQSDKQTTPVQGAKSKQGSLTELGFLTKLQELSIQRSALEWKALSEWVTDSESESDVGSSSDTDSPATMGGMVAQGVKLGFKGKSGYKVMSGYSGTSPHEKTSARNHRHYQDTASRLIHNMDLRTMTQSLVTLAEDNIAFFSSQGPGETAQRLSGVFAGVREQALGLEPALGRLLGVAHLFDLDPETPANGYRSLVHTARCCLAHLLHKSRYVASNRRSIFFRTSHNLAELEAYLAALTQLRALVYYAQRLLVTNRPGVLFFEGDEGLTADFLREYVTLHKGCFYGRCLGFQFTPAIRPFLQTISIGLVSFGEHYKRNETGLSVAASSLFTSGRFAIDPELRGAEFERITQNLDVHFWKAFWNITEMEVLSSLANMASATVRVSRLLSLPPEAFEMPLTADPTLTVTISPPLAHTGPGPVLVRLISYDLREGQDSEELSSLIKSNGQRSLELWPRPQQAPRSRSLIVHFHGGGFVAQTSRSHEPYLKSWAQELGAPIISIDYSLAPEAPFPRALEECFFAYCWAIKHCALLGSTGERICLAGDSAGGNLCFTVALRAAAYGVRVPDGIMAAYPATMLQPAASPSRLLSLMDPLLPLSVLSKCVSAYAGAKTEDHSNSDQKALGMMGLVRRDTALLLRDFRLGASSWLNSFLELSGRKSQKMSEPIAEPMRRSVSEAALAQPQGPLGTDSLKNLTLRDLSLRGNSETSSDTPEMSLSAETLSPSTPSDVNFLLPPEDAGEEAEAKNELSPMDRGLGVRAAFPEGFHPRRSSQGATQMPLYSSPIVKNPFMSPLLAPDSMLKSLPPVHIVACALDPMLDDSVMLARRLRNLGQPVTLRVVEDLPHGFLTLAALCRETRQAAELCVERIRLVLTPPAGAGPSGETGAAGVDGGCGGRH
# Assay: 3190.1: percent inhibition of hormone sensitive lipase at 10 μM (fluorochrome-labeled triacylglyceride emulsion, HSL_FL)
# Format: biochemical
# Conditions: 10 μM sample concentration; % activity relative to non-inhibited sample (no compound); 30 min pre-incubation at 25° C., 120 min at 37° C.
# Description: Materials. The Hormone-sensitive lipase was provided by Dr. Cecilia Holm, from Lund University Sweden or produced and purified by Novo Nordisk (NN) using the reagents and protocols used by Dr. Holm. The substrates used are: ^3H-labeled triolein (TO) from Amersham, Buckinghamshire, U.K. cat No. TRA191; 5-20 Ci/mmol dissolved in toluene, triolein (Sigma, Cat. No. T-1740), fluorochrome-labeled triacylglyceride (cis-octadec-9-enoic acid 2-[12-(7-nitrobenzo[1,2,5]oxadiazol-4-ylamino)dodecanoyloxy]-1-cis-octadec-9-enoyloxymethyl-ethyl ester) prepared by Novo Nordisk (NN) by conventional methods, and 1,3-(di[^3H]-stearin), 2-(PEG-Biotin)glycerol prepared in collaboration with Amersham Pharmacia Biotech, UK and described in WO 01/073442. Phosphatidyl choline (PC) and phosphatidyl inositol (PI) are from Sigma (St Luis Mo. cat. Nos. P-3556 and P-5954 respectively). All other reagents are of commercial grade and obtained from various commercial sources.
# 3190.1: Assay for determination of percent inhibition of hormone sensitive lipase by compound at 10 μM sample concentration.
# A lipid emulsion with fluorochrome-labeled triacylglyceride and phospholipid is used as substrate with a standard concentration of highly purified HSL (12 μg/mL initial concentration corresponding to 600 ng/mL final concentration). BSA is added as product acceptor. The transfer of the fluorochrome from the lipid phase to the water (BSA) phase changes the fluorescent properties of the fluorochrome. The changes can be monitored on a fluorimeter with an excitation wavelength of 450 nm and an emission wavelength of 545 nm.
# Compound and HSL (20 μL compound, 10 μL enzyme and 70 μL PED-BSA buffer) is pre-incubated for 30 min at 25° C. before addition of substrate (100 μL). Amount of formed product is measured after 120 min incubation at 37° C.
# Results are given as percent activity relative to a non-inhibited sample (no compound).
row,SMILES,activity at 10 µM [%]
1,"CN(C(=O)Oc1ccc(CCOc2ccncc2)cc1)c1ccccc1 [Example 1, Methyl-phenyl-carbamic acid 4-[2-(pyridin-4-yloxy)-ethyl]-phenyl ester]",1
2,"CN(C(=O)Oc1ccc(CCSc2ncc[nH]2)cc1)c1ccccc1 [Example 3, Methyl-phenyl-carbamic acid 4-[2-(1H-imidazol-2-ylsulfanyl)-ethyl]-phenyl ester]",1
3,"CN(C(=O)Oc1ccc(CSc2ncc[nH]2)cc1)c1ccccc1 [Example 2, Methyl-phenyl-carbamic acid 4-(1H-imidazol-2-ylsulfanylmethyl)-phenyl ester]",1
4,"Cc1cccc(Cc2ccc(OC(=O)N(C)c3ccccc3)cc2)n1 [Example 4, Methyl-phenyl-carbamic acid 4-(6-methyl-pyridin-2-ylmethyl)-phenyl ester]",5

# From US20060148860A1, “Substituted p-phenyl carbamates” (Novo Nordisk A/S, priority 2003, published 2006)
